Assay results published in patent publication US10561653B2 (NOVARTIS AG, priority 2015, dated 2020).

Assays:
MCA205 tumor cells = test: anti-tumor activity in syngeneic mice injected intravenously with MCA205 tumor cells (lung nodules); type: in vivo, C57Bl/6 mice; conditions: for number of lung nodules: oral, 30 mg/Kg/day, similar conditions, University of Barcelona, FIGS. 1b and 1c
Procedure: (§1) (mean lung nodules of 9-10 mice/group±standard errors are shown; *: P<0.05 by Student T test).
(§2) FIGS. 1b and 1c show the anti-tumoral activity of orally administered Compound A and Compound B in two syngeneic mouse models of cancer. (mean lung nodules of 9-10 mice/group±standard errors are shown; *: P<0.05 by Student T test).
(§3) All experiments were carried out in accordance with guidelines set out by the Animal Experimental Ethics Committee. […] Vehicle consisted of 0.1% Tween 80 and 0.5% sodium carboxymethylcellulose (NaCMC) in water. Mice were euthanized at day 15, lungs harvested and tumor nodules counted under dissecting microscope. […] Freshly resected NSCLC tumors were obtained through the Tissue Core at Moffitt Cancer Center. The tumor was disaggregated for 2 hours in a Collagenase/DNase solution in the presence of complete protease inhibitors (Roche). Total cells (Tu) were counted. […] IL-2 has been used in some experiments in order to stimulate the IFN-γ production in these very resistant tumor cells. […] IFNg (IFN-γ ELISA R&D Systems) was determinated as a measure of T cell reactivity to autologous tumor cells. […] The compounds A and B were tested using similar experimental conditions, with the exception that the freshly resected NSCLC tumors were obtained from the Hospital Clínico in Barcelona. […] FIG. 8 a-g show the results obtained in each case. […] This is considered a clear signal of immune stimulation of the infiltrating lymphocytes presents in the tumors. […] 4. […] A compound of Formula I will be administered orally to the patient twice daily, fasting, at a dose of 80 mg, 160 mg, 320 mg or 640 mg throughout a cycle of 28 days. […] Response and progression will be evaluated in this study using the new international criteria proposed by the revised Response Evaluation Criteria in Solid Tumors (RECIST) guideline (version 1.1; Eisenhauer E A, Therasse P, Bogaerts J, et al. New response evaluation criteria in solid tumours: revised RECIST guideline (version 1.1). Eur J Cancer 2009; 45:228-47). […]

[1] = test system: freshly resected NSCLC tumors (human lung tumour explants); test: ex vivo human lung tumour explants: IFNg secretion (IFN-γ ELISA) as measure of T cell (TIL) reactivity; type: cell-based; conditions: for secretion of IFNg of tumor cells: NSCLC tumors from Hospital Clínico in Barcelona; for interferon gamma secretion from lung tumor cells stimulated with IL-2: FIG. 3
Procedure: (§4) All experiments were carried out in accordance with guidelines set out by the Animal Experimental Ethics Committee. […] Vehicle consisted of 0.1% Tween 80 and 0.5% sodium carboxymethylcellulose (NaCMC) in water. Mice were euthanized at day 15, lungs harvested and tumor nodules counted under dissecting microscope. […] Freshly resected NSCLC tumors were obtained through the Tissue Core at Moffitt Cancer Center. The tumor was disaggregated for 2 hours in a Collagenase/DNase solution in the presence of complete protease inhibitors (Roche). Total cells (Tu) were counted. […] IL-2 has been used in some experiments in order to stimulate the IFN-γ production in these very resistant tumor cells. […] IFNg (IFN-γ ELISA R&D Systems) was determinated as a measure of T cell reactivity to autologous tumor cells. […] The compounds A and B were tested using similar experimental conditions, with the exception that the freshly resected NSCLC tumors were obtained from the Hospital Clínico in Barcelona. […] FIG. 8 a-g show the results obtained in each case. […] This is considered a clear signal of immune stimulation of the infiltrating lymphocytes presents in the tumors. […] 4. […] A compound of Formula I will be administered orally to the patient twice daily, fasting, at a dose of 80 mg, 160 mg, 320 mg or 640 mg throughout a cycle of 28 days. An anti-PD-1 antibody will be administered at a dose of about 300 mg or about 400 mg once every 3 week or once every 4 weeks. The anti-PD-1 antibody will be administered via IV infusion over a period of 30 minutes to 2 h. The compound of Formula I will be administered fasting immediately prior to the infusion with the anti-PD-1 antibody. In order to determine efficacy, baseline evaluations will be performed as closely as possible to the beginning of treatment and never more than 4 weeks before the beginning of the treatment. In addition to a baseline scan, confirmatory scans will be obtained 4-6 weeks following initial documentation of objective response. Response and progression will be evaluated in this study using the new international criteria proposed by the revised Response Evaluation Criteria in Solid Tumors (RECIST) guideline (version 1.1; Eisenhauer E A, Therasse P, Bogaerts J, et al. New response evaluation criteria in solid tumours: revised RECIST guideline (version 1.1). Eur J Cancer 2009; 45:228-47). Changes in the largest diameter (unidimensional measurement) of the tumor lesions and the shortest diameter in the case of malignant lymph nodes are used (Schwartz L H, Bogaerts J, Ford R, et al. Evaluation of lymph nodes with RECIST 1.1. Eur J Cancer 2009; 45:261-7). All The same method of assessment and the same technique will be used to characterize each identified and reported lesion at baseline and during follow-up. Imaging-based evaluation such as Chest x-ray, conventional CT and MRI will be used.

B16-CD73+ tumor cells = test: anti-tumor activity in syngeneic mice injected intravenously with B16-CD73+ tumor cells (lung nodules); type: in vivo, C57Bl/6 mice; conditions: for number of lung nodules: oral, 30 mg/Kg/day, similar conditions, University of Barcelona, FIGS. 1b and 1c
Procedure: as §1, §2, §3

[2] = toxicity profile in different animal models; type: in vivo; conditions: in comparison with classical chemotherapy and other adenosine receptor antagonists
[3] = test system: resistant human lung tumor explants; test: Bioplex assay of interleukins secretion in supernatants of resistant human lung tumor explants; type: cell-based
Procedure: as §4

[4] = compound alone, 1 μM, FIGS. 4-7 (IL-2 stimulated)
[5] = in combination with an anti-PD-L1 or an anti-PD-1 antibody, FIGS. 4-7
[6] = compound alone, supernatants from ex vivo experiments, FIG. 8

With `Nc1nc(-n2cccn2)nc(-n2cccn2)c1Cl` [Compound A, 5-chloro-2,6-di-(1H-pyrazol-1-yl)pyrimidin-4-amine, reference compound] the “number of lung nodules” value (MCA205 tumor cells) was “no significant reduction”, the “secretion of IFNg of tumor cells” value [1, 4] was “not able to increase the secretion of IFNg” and the “secretion of IFNg of tumor cells” value [1, 5] was “not able to increase the secretion of IFNg”. For the same compound, the “number of lung nodules” value (B16-CD73+ tumor cells) was “no significant reduction”.

With `N#Cc1c(N)nc(-n2cccn2)nc1-n1cccn1` [Compound B, 4-amino-2,6-di-(1H-pyrazol-1-yl)pyrimidine-5-carbonitrile, reference compound] the “number of lung nodules” value (MCA205 tumor cells) was “no significant reduction”, the “secretion of IFNg of tumor cells” value [1, 4] was “not able to increase the secretion of IFNg” and the “secretion of IFNg of tumor cells” value [1, 5] was “not able to increase the secretion of IFNg”. For the same compound, the “number of lung nodules” value (B16-CD73+ tumor cells) was “no significant reduction”.

In the case of `Nc1nc(-n2cccn2)nc(-n2cccn2)c1Br` [Compound of formula (I), 5-bromo-2,6-di-(1H-pyrazol-1-yl)pyrimidin-4-amine], the “tumor burden (lung nodule and lung metastasis)” value (MCA205 tumor cells; 2×10^5 MCA205 cells i.v., 30 mg/kg/day oral gavage daily for 7 days vs vehicle, nodules counted day 15, FIG. 1a) was “significantly reduced tumor burden”, the toxicity profile [2] was “low toxicity profile” and the “TIL function (IFNg concentration)” value ([1]; 1 μM in combination with anti-PD-L1 antibody, other tumors) was “synergistically capable of restoring TIL function”. The “TIL function (IFNg concentration)” value ([1]; 1 μM in combination with anti-PD-L1 antibody, some of the samples) was “improved TIL function (as determined by measuring IFNg concentration) in additive way”, the “interferon gamma secretion from lung tumor cells stimulated with IL-2” value ([1]; compound alone) was “significantly increased” and the “interferon gamma secretion from lung tumor cells stimulated with IL-2” value ([1]; in combination with anti-PD-1 antibody, compared with compound alone) was “more pronounced”. For the same compound, the “interferon gamma secretion of non-stimulated lung tumor cells” value ([1]; in combination with anti-PD-L1 antibody, FIG. 2) was “significantly increase”, the “TIL function (IFNg concentration)” value ([1]; single agent, other tumors, compound 1 μM, antibody 10 mg/ml) was “had no effect on TIL function” and the “TIL reactivity (IFNg concentration)” value ([1]; single agent, some of the samples, 200,000 cells/well, 3 days, compound 1 μM, antibody 10 mg/ml) was “partially restored TIL reactivity”. The “tumor burden (lung nodule and lung metastasis)” value (B16-CD73+ tumor cells; 3×10^5 B16-CD73+ cells i.v., 15 mg/kg/day oral gavage daily for 15 days vs vehicle, nodules counted day 15, FIG. 1a) was “significantly reduced tumor burden”, the “secretion of IL5 (Interleukin 5) to the medium” value [3, 6] was “significantly increase the secretion” and the “secretion of IL10 (Interleukin 10) to the medium” value [3, 6] was “significantly increase the secretion”. The “secretion of IL13 (Interleukin 13) to the medium” value [3, 6] was “significantly increase the secretion”, the “secretion of IL17 (Interleukin 17) to the medium” value [3, 6] was “significantly increase the secretion” and the “secretion of ILib (Interleukin 1b) to the medium” value [3, 6] was “significantly increase the secretion”. For the same compound, the “secretion of MIP1b to the medium” value [3, 6] was “significantly increase the secretion”, the “secretion of tumor necrosis factor α (TNFα) to the medium” value [3, 6] was “significantly increase the secretion” and the “secretion of different interleukins” value ([3]; in combination with either an anti PDL-1 or an anti-PD-1 antibody) was “increased the secretion of different interleukins of these tumors synergistically”.
